target: ATR kinase (full-length ATR) (Homo sapiens (Human), UniProt Q13535); test: ATR inhibition assay (radioactive-phosphate incorporation); assay type: biochemical; conditions: not given
Method: Compounds were screened for their ability to inhibit ATR kinase using a radioactive-phosphate incorporation assay. Assays were carried out in a mixture of 50 mM Tris/HCl (pH 7.5), 10 mM MgCl2 and 1 mM DTT. Final substrate concentrations were 10 μM [γ-33P]ATP (3mCi 33P ATP/mmol ATP, Perkin Elmer) and 800 μM target peptide ([…]) (SEQ ID NO:1).
Assays were carried out at 25° C. in the presence of 5 nM full-length ATR. An assay stock buffer solution was prepared containing all of the reagents listed above, with the exception of ATP and the test compound of interest. 13.5 μL of the stock solution was placed in a 96 well plate followed by addition of 2 μL of DMSO stock containing serial dilutions of the test compound (typically starting from a final concentration of 15 μM with 3-fold serial dilutions) in duplicate (final DMSO concentration 7%). The plate was pre-incubated for 10 minutes at 25° C. and the reaction initiated by addition of 15 μL [γ-33P]ATP (final concentration 10 μM).
The reaction was stopped after […] by the addition of 30 μL 0.1M phosphoric acid containing 2 mM ATP. A multiscreen phosphocellulose filter 96-well plate (Millipore, Cat no. MAPHN0B50) was pretreated with 100 μL 0.2M phosphoric acid prior to the addition of […] of the stopped assay mixture. The plate was washed with 5×200 μL 0.2M phosphoric acid. After drying, 100 μL Optiphase ‘SuperMix’ liquid scintillation cocktail (Perkin Elmer) was added to the well prior to scintillation counting (1450 Microbeta Liquid Scintillation Counter, Wallac).
After removing mean background values for all of the data points, Ki(app) data were calculated from non-linear regression analysis of the initial rate data using the Prism software package (GraphPad Prism version 3.0cx for Macintosh, GraphPad Software, San Diego Calif., USA).

Chain of ATR kinase (full-length ATR) (Q13535 whole entry): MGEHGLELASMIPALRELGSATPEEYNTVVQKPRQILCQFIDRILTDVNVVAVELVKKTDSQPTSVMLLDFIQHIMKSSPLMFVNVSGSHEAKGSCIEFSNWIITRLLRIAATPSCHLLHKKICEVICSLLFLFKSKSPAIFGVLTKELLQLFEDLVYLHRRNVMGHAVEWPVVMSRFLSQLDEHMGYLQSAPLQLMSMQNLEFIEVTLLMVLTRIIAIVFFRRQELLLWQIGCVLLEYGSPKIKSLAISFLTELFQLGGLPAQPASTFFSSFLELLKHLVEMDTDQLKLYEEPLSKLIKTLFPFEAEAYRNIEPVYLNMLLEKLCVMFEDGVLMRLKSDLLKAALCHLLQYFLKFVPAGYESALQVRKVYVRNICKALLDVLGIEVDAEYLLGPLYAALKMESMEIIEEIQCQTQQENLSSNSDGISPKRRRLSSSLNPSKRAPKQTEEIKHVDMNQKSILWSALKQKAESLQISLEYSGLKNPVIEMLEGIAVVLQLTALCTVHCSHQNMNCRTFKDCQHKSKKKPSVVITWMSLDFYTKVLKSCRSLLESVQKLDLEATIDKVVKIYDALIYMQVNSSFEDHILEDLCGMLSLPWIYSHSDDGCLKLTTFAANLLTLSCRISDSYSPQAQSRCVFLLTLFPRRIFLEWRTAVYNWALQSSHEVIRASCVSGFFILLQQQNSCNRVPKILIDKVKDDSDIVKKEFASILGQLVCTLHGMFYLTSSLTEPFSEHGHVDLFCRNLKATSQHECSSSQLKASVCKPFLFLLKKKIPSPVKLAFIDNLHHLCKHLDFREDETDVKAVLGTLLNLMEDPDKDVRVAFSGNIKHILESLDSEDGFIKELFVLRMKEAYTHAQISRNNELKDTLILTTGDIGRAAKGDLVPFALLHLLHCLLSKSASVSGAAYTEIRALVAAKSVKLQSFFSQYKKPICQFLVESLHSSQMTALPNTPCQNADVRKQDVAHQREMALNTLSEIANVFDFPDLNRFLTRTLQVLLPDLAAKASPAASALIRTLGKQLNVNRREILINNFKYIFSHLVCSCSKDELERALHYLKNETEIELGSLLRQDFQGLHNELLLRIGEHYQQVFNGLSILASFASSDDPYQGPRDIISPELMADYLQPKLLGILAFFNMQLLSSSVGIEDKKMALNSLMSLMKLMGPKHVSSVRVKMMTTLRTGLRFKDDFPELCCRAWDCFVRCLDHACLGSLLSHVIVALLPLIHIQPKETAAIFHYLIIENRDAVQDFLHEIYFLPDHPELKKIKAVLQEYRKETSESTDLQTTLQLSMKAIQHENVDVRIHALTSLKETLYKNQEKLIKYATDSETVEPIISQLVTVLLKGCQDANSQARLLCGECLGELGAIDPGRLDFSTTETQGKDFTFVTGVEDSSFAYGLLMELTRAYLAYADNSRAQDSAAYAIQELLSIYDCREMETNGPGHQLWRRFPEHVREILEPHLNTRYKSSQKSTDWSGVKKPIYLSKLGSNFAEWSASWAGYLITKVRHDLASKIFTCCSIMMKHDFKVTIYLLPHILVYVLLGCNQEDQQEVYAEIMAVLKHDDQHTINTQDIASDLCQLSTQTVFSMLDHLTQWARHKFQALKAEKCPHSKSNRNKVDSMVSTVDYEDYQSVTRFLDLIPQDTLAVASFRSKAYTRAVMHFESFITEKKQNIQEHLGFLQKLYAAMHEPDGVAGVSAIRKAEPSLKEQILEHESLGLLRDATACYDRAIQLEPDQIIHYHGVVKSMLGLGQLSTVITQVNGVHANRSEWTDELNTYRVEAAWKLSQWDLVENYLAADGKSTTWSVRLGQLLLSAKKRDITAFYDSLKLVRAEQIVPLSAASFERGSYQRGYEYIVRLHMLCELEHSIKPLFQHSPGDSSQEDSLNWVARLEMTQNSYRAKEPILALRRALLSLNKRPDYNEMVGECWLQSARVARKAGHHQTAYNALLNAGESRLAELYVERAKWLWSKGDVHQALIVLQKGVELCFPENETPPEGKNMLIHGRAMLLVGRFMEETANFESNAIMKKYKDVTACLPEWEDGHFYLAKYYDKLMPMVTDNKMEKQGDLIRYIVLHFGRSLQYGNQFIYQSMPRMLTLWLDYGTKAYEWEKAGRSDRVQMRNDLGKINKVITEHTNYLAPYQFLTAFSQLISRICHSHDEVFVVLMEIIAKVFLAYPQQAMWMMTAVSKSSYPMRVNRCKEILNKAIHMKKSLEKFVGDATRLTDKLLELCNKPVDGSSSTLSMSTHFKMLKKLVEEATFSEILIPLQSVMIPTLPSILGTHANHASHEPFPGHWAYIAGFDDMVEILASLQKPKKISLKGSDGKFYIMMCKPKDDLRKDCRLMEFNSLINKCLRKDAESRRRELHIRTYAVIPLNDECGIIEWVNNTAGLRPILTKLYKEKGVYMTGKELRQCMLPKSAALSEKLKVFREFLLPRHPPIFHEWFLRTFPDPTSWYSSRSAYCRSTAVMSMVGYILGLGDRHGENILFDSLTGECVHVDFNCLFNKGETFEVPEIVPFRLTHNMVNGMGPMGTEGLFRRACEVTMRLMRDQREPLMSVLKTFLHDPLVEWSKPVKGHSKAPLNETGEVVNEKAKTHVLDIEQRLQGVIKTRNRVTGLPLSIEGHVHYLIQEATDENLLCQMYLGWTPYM

| Ki | SMILES |
| --- | --- |
| 1 to 5 µM | Nc1nn2cc(F)cnc2c1C(=O)Nc1cncc(F)c1C1CCN(C2COC2)CC1 [I-C-13, 2-amino-6-fluoro-N-(5-fluoro-4-(1-(oxetan-3-yl)piperidin-4-yl)pyridin-3-yl)pyrazolo[1,5-a]pyrimidine-3-carboxamide] |
| 1 to 5 µM | CN1CCC(c2c(F)cncc2NC(=O)c2c(N)nn3cc(F)cnc23)CC1 [I-C-14, 2-amino-6-fluoro-N-(5-fluoro-4-(1-methylpiperidin-4-yl)pyridin-3-yl)pyrazolo[1,5-a]pyrimidine-3-carboxamide] |
| 1 to 5 µM | CN1CCC(c2ccncc2NC(=O)c2c(N)nn3cc(C(C)(C)C#N)cnc23)CC1 [I-C-23, 2-amino-6-(2-cyanopropan-2-yl)-N-(4-(1-methylpiperidin-4-yl)pyridin-3-yl)pyrazolo[1,5-a]pyrimidine-3-carboxamide] |
| 1 to 5 µM | Nc1nn2cc(F)cnc2c1C(=O)Nc1cnccc1-c1cccnc1Cl [I-C-37, 2-amino-N-(2-chloro-[3,4′-bipyridin]-3′-yl)-6-fluoropyrazolo[1,5-a]pyrimidine-3-carboxamide] |

same assay, conditions: Ki(app), 5 nM full-length ATR, 10 μM ATP, 25° C.

| SMILES | Ki |
| --- | --- |
| Nc1nn2cc(F)cnc2c1C(=O)Nc1cnccc1C1CCN(C2COC2)CC1 [I-C-10, 2-amino-6-fluoro-N-(4-(1-(oxetan-3-yl)piperidin-4-yl)pyridin-3-yl)pyrazolo[1,5-a]pyrimidine-3-carboxamide] | 0.01 to 1 µM |
| Nc1nn2cc(Cl)cnc2c1C(=O)Nc1cnccc1C1CCN(C2COC2)CC1 [I-C-11, 2-amino-6-chloro-N-(4-(1-(oxetan-3-yl)piperidin-4-yl)pyridin-3-yl)pyrazolo[1,5-a]pyrimidine-3-carboxamide] | 0.01 to 1 µM |
| Nc1nn2cc(F)cnc2c1C(=O)Nc1cncc(F)c1C1=CCN(C2COC2)CC1 [I-C-12, 2-amino-6-fluoro-N-(5-fluoro-1′-(oxetan-3-yl)-1′,2′,3′,6′-tetrahydro-[4,4′-bipyridin]-3-yl)pyrazolo[1,5-a]pyrimidine-3-carboxamide] | 0.01 to 1 µM |
| Nc1nn2cc(F)cnc2c1C(=O)Nc1cnccc1-c1cccnc1 [I-C-15, N-([3,4′-bipyridin]-3′-yl)-2-amino-6-fluoropyrazolo[1,5-a]pyrimidine-3-carboxamide] | 0.01 to 1 µM |
| CN1CCN(C(=O)N2CCC(c3ccncc3NC(=O)c3c(N)nn4cc(F)cnc34)CC2)CC1 [I-C-17, 2-amino-6-fluoro-N-(4-(1-(4-methylpiperazine-1-carbonyl)piperidin-4-yl)pyridin-3-yl)pyrazolo[1,5-a]pyrimidine-3-carboxamide] | 0.01 to 1 µM |
| Nc1nn2cc(F)cnc2c1C(=O)Nc1cnccc1C1CCN(C(=O)C23CCN(CC2)CC3)CC1 [I-C-18, 2-amino-6-fluoro-N-(4-(1-(quinuclidine-4-carbonyl)piperidin-4-yl)pyridin-3-yl)pyrazolo[1,5-a]pyrimidine-3-carboxamide] | 0.01 to 1 µM |
| CN1CCN(c2ccc(-c3ccncc3NC(=O)c3c(N)nn4cc(F)cnc34)cn2)CC1 [I-C-21, 2-amino-6-fluoro-N-(6-(4-methylpiperazin-1-yl)-[3,4′-bipyridin]-3′-yl)pyrazolo[1,5-a]pyrimidine-3-carboxamide] | 0.01 to 1 µM |
| Cc1ccc(-c2ccncc2NC(=O)c2c(N)nn3cc(F)cnc23)cn1 [I-C-22, 2-amino-6-fluoro-N-(6-methyl-[3,4′-bipyridin]-3′-yl)pyrazolo[1,5-a]pyrimidine-3-carboxamide] | 0.01 to 1 µM |
| Nc1nn2cc(F)cnc2c1C(=O)Nc1cnccc1-c1ccncc1 [I-C-24, N-([4,4′-bipyridin]-3-yl)-2-amino-6-fluoropyrazolo[1,5-a]pyrimidine-3-carboxamide] | 0.01 to 1 µM |
| Nc1nn2cc(F)cnc2c1C(=O)Nc1cnccc1-c1ccnnc1 [I-C-26, 2-amino-6-fluoro-N-(4-(pyridazin-4-yl)pyridin-3-yl)pyrazolo[1,5-a]pyrimidine-3-carboxamide] | 0.01 to 1 µM |
| Nc1nn2cc(F)cnc2c1C(=O)Nc1cnccc1-c1cncnc1 [I-C-28, 2-amino-6-fluoro-N-(4-(pyrimidin-5-yl)pyridin-3-yl)pyrazolo[1,5-a]pyrimidine-3-carboxamide] | 0.01 to 1 µM |
| Cc1cnccc1-c1ccncc1NC(=O)c1c(N)nn2cc(F)cnc12 [I-C-29, 2-amino-6-fluoro-N-(3′-methyl-[4,4′-bipyridin]-3-yl)pyrazolo[1,5-a]pyrimidine-3-carboxamide] | 0.01 to 1 µM |
| Cc1ccncc1-c1ccncc1NC(=O)c1c(N)nn2cc(F)cnc12 [I-C-30, 2-amino-6-fluoro-N-(4-methyl-[3,4′-bipyridin]-3′-yl)pyrazolo[1,5-a]pyrimidine-3-carboxamide] | 0.01 to 1 µM |
| Nc1nn2cc(F)cnc2c1C(=O)Nc1cnccc1-c1cccnc1O [I-C-32, 2-amino-6-fluoro-N-(2-hydroxy-[3,4′-bipyridin]-3′-yl)pyrazolo[1,5-a]pyrimidine-3-carboxamide] | 0.01 to 1 µM |
| Nc1nn2cc(F)cnc2c1C(=O)Nc1cnccc1-c1cccnc1F [I-C-35, 2-amino-6-fluoro-N-(2-fluoro-[3,4′-bipyridin]-3′-yl)pyrazolo[1,5-a]pyrimidine-3-carboxamide] | 0.01 to 1 µM |
| Cc1nc(N2CCN(C)CC2)ccc1-c1ccncc1NC(=O)c1c(N)nn2cc(F)cnc12 [I-C-40, 2-amino-6-fluoro-N-(2-methyl-6-(4-methylpiperazin-1-yl)-[3,4′-bipyridin]-3′-yl)pyrazolo[1,5-a]pyrimidine-3-carboxamide] | 0.01 to 1 µM |
| Cc1cc(C(=O)N2CCN(C)CC2)ccc1-c1ccncc1NC(=O)c1c(N)nn2cc(F)cnc12 [I-C-45, 2-amino-6-fluoro-N-(4-(2-methyl-4-(4-methylpiperazine-1-carbonyl)phenyl)pyridin-3-yl)pyrazolo[1,5-a]pyrimidine-3-carboxamide] | 0.01 to 1 µM |

Further lines, results first:

| Ki | SMILES |
| --- | --- |
| 0.01 to 1 µM | CN1CCC(C(=O)N2CCC(c3ccncc3NC(=O)c3c(N)nn4cc(F)cnc34)CC2)CC1 [I-C-16, 2-amino-6-fluoro-N-(4-(1-(1-methylpiperidine-4-carbonyl)piperidin-4-yl)pyridin-3-yl)pyrazolo[1,5-a]pyrimidine-3-carboxamide] |
| 0.01 to 1 µM | CN1CCN(C(=O)c2ccc(-c3ccncc3NC(=O)c3c(N)nn4cc(F)cnc34)cn2)CC1 [I-C-19, 2-amino-6-fluoro-N-(6-(4-methylpiperazine-1-carbonyl)-[3,4′-bipyridin]-3′-yl)pyrazolo[1,5-a]pyrimidine-3-carboxamide] |
| 0.01 to 1 µM | Cc1ncccc1-c1ccncc1NC(=O)c1c(N)nn2cc(F)cnc12 [I-C-20, 2-amino-6-fluoro-N-(2-methyl-[3,4′-bipyridin]-3′-yl)pyrazolo[1,5-a]pyrimidine-3-carboxamide] |
| 0.01 to 1 µM | COc1ccc(-c2ccncc2NC(=O)c2c(N)nn3cc(F)cnc23)cn1 [I-C-27, 2-amino-6-fluoro-N-(6-methoxy-[3,4′-bipyridin]-3′-yl)pyrazolo[1,5-a]pyrimidine-3-carboxamide] |
| 0.01 to 1 µM | Cc1ccnnc1-c1ccncc1NC(=O)c1c(N)nn2cc(F)cnc12 [I-C-33, 2-amino-6-fluoro-N-(4-(4-methylpyridazin-3-yl)pyridin-3-yl)pyrazolo[1,5-a]pyrimidine-3-carboxamide] |
| 0.01 to 1 µM | Cc1nc(F)ccc1-c1ccncc1NC(=O)c1c(N)nn2cc(F)cnc12 [I-C-34, 2-amino-6-fluoro-N-(6-fluoro-2-methyl-[3,4′-bipyridin]-3′-yl)pyrazolo[1,5-a]pyrimidine-3-carboxamide] |
| 0.01 to 1 µM | Cc1cccnc1-c1ccncc1NC(=O)c1c(N)nn2cc(F)cnc12 [I-C-36, 2-amino-6-fluoro-N-(3-methyl-[2,4′-bipyridin]-3′-yl)pyrazolo[1,5-a]pyrimidine-3-carboxamide] |
| 0.01 to 1 µM | CN1CCC(C(=O)N2CC=C(c3c(F)cncc3NC(=O)c3c(N)nn4cc(F)cnc34)CC2)CC1 [I-C-38, 2-amino-6-fluoro-N-(5-fluoro-1′-(1-methylpiperidine-4-carbonyl)-1′,2′,3′,6′-tetrahydro-[4,4′-bipyridin]-3-yl)pyrazolo[1,5-a]pyrimidine-3-carboxamide] |
| 0.01 to 1 µM | Cc1nc(C(=O)N2CCN(C)CC2)ccc1-c1ccncc1NC(=O)c1c(N)nn2cc(F)cnc12 [I-C-39, 2-amino-6-fluoro-N-(2-methyl-6-(4-methylpiperazine-1-carbonyl)-[3,4′-bipyridin]-3′-yl)pyrazolo[1,5-a]pyrimidine-3-carboxamide] |
| 0.01 to 1 µM | Cc1nc(O[C@@H]2CCN(C)C2)ccc1-c1ccncc1NC(=O)c1c(N)nn2cc(F)cnc12 [I-C-41, (R)-2-amino-6-fluoro-N-(2-methyl-6-((1-methylpyrrolidin-3-yl)oxy)-[3,4′-bipyridin]-3′-yl)pyrazolo[1,5-a]pyrimidine-3-carboxamide] |
| 0.01 to 1 µM | Nc1nn2cc(F)cnc2c1C(=O)Nc1cnccc1C1CC1 [I-C-42, 2-amino-N-(4-cyclopropylpyridin-3-yl)-6-fluoropyrazolo[1,5-a]pyrimidine-3-carboxamide] |
| 0.01 to 1 µM | Nc1nn2cc(F)cnc2c1C(=O)Nc1cnccc1-c1ccc(C(=O)N2CCNCC2)cc1 [I-C-44, 2-amino-6-fluoro-N-(4-(4-(piperazine-1-carbonyl)phenyl)pyridin-3-yl)pyrazolo[1,5-a]pyrimidine-3-carboxamide] |

— US10392391B2 (Vertex Pharmaceuticals Incorporated, priority 2012, dated 2019)
